Laboratory results taken from patent US6737383B1, “Herbicidal oxadiazolidines” (priority 1999, dated 2004).

Legend:
[1] = tested on: chickweed; experiment: Test E chickweed; format: in vivo, Stellaria media; conditions: Preemergence
[2] = tested on: Spanishneedles; experiment: Test D Spanishneedles; format: in vivo, Bidens bipinnata; conditions: Rate 125 g/ha, Preemergence; 0 to 100 scale, 0 no injury, 100 complete control
Outline: (§1)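 Each weed species is planted in its own pot or compartment; preemergence doses go on the sandy loam surface within a day. The formulation is a surfactant-containing, non-phytotoxic solvent blend. Ratings come from visual comparison with untreated controls 14 to 21 days later, where 100 means complete control.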

[3] = tested on: Johnson grass; experiment: Test D Johnson grass; format: in vivo, Sorghum halepense; conditions: Rate 125 g/ha, Preemergence; 0 to 100 scale, 0 no injury, 100 complete control
Outline: as §1

[4] = tested on: bermuda-grass; experiment: Test D bermudagrass; format: in vivo, Cynodon dactylon; conditions: Rate 125 g/ha, Preemergence; 0 to 100 scale, 0 no injury, 100 complete control
Outline: as §1

[5] = tested on: large crabgrass; experiment: Test D large crabgrass; format: in vivo, Digitaria sanguinalis; conditions: Rate 125 g/ha, Preemergence; 0 to 100 scale, 0 no injury, 100 complete control
Outline: as §1

[6] = tested on: dallisgrass; experiment: Test D dallisgrass; format: in vivo, Paspalum dilatatum; conditions: Rate 125 g/ha, Preemergence; 0 to 100 scale, 0 no injury, 100 complete control
Outline: as §1

[7] = tested on: crabgrass; experiment: Test A crabgrass; format: in vivo, Digitaria spp.; conditions: 0 to 10 scale where 0 is no effect and 10 is complete control
Outline: (§2)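 Injury scored visually after about eleven greenhouse days against untreated plants, 0 = no effect, 10 = complete control. Compounds, formulated in surfactant-containing non-phytotoxic solvent, were applied as preemergence soil drench to sandy loam plantings and as postemergence runoff spray at the 1–2 leaf stage.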

[8] = tested on: barnyardgrass; experiment: Test A barnyardgrass; format: in vivo, Echinochloa crus-galli; conditions: 0 to 10 scale where 0 is no effect and 10 is complete control
Outline: as §2

[9] = tested on: velvetleaf; experiment: Test A velvetleaf; format: in vivo, Abutilon theophrasti; conditions: 0 to 10 scale where 0 is no effect and 10 is complete control
Outline: as §2

[10] = tested on: common ragweed; experiment: Test D common ragweed; format: in vivo, Ambrosia elatior; conditions: Rate 125 g/ha, Preemergence; 0 to 100 scale, 0 no injury, 100 complete control
Outline: as §1

[11] = tested on: pitted morningglory; experiment: Test D pitted morningglory; format: in vivo, Ipomoea lacunosa; conditions: Rate 125 g/ha, Preemergence; 0 to 100 scale, 0 no injury, 100 complete control
Outline: as §1

[12] = tested on: kochia; experiment: Test E kochia; format: in vivo, Kochia scoparia; conditions: Preemergence
[13] = tested on: purple nutsedge; experiment: Test D purple nutsedge; format: in vivo, Cyperus rotundus; conditions: Rate 125 g/ha, Preemergence; 0 to 100 scale, 0 no injury, 100 complete control
Outline: as §1

[14] = tested on: guineagrass; experiment: Test D guineagrass; format: in vivo, Panicum maximum; conditions: Rate 125 g/ha, Preemergence; 0 to 100 scale, 0 no injury, 100 complete control
Outline: as §1

[15] = tested on: morningglory; experiment: Test A morningglory; format: in vivo, Ipomoea spp.; conditions: 0 to 10 scale where 0 is no effect and 10 is complete control
Outline: as §2

[16] = tested on: itchgrass; experiment: Test D itchgrass; format: in vivo, Rottboellia exaltata; conditions: Rate 125 g/ha, Preemergence; 0 to 100 scale, 0 no injury, 100 complete control
Outline: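 Scoring used a 0–100 visual injury scale, with 0 meaning no effect and 100 complete control, assessed 14–21 days after application alongside untreated pots. Preemergence treatments went onto sandy loam surfaces of separately potted seeds within a day of sowing.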

[17] = tested on: sandbur; experiment: Test D sandbur; format: in vivo, Cenchrus echinatus; conditions: Rate 125 g/ha, Preemergence; 0 to 100 scale, 0 no injury, 100 complete control
Outline: as §1

[18] = tested on: common pursiane; experiment: Test D common purslane; format: in vivo, Portulaca oleracea; conditions: Rate 125 g/ha, Preemergence; 0 to 100 scale, 0 no injury, 100 complete control
Outline: as §1

[19] = tested on: common groundsel; experiment: Test D common groundsel; format: in vivo, Senecio vulgaris; conditions: Rate 125 g/ha, Preemergence; 0 to 100 scale, 0 no injury, 100 complete control
Outline: as §1

[20] = tested on: Alexandergrass; experiment: Test D Alexandergrass; format: in vivo, Brachiaria plantaginea; conditions: Rate 125 g/ha, Preemergence; 0 to 100 scale, 0 no injury, 100 complete control
Outline: as §1

[21] = tested on: surinam grass; experiment: Test D surinam grass; format: in vivo, Brachiaria decumbens; conditions: Rate 125 g/ha, Preemergence; 0 to 100 scale, 0 no injury, 100 complete control
Outline: as §1

[22] = tested on: tall mallow; experiment: Test D tall mallow; format: in vivo, Malva sylvestris; conditions: Rate 125 g/ha, Preemergence; 0 to 100 scale, 0 no injury, 100 complete control
Outline: as §1

[23] = Rate 125 g/ha, 0 to 100 scale (0 no effect, 100 complete control)
[24] = Rate 500 g/ha, 0 to 100 scale where 0 is no effect and 100 is complete control

## CC(C)N(C(=O)n1oc(=O)n(C(C)C)c1=O)c1ccc(Cl)cc1 [Compound 114]
[1]; [23]
  Plant response rating, Chickweed: 15
[1]; Rate 250 g/ha, 0 to 100 scale
  Plant response rating, Chickweed: 50
[1]; [24]
  Plant response rating, Chickweed: 100
[2]
  Spanishneedles plant response rating: 0
[3]
  Plant response rating Johnsongrass: 0
[4]
  Plant response rating, Bermudagrass: 100
[5]
  Plant response rating Large crabgrass: 100
[6]
  Plant response rating, Dallisgrass: 100
[7]; Postemergence, Rate 1000 g/ha
  Plant response rating, Crabgrass: 7
[7]; Pre-emergence, Rate 2000 g/ha
  Plant response rating, Crabgrass: 10
[8]; Postemergence, Rate 1000 g/ha
  Plant response rating, Barnyardgrass: 8
[8]; Pre-emergence, Rate 2000 g/ha
  Plant response rating, Barnyardgrass: 10
[9]; Postemergence, Rate 1000 g/ha
  Plant response rating, Velvetleaf: 5
[9]; Pre-emergence, Rate 2000 g/ha
  Plant response rating, Velvetleaf: 6
[10]
  Plant response rating, C. ragweed: 0
[11]
  Plant response rating, P. morninglory: 0
[12]; [23]
  Plant response rating, Kochia: 25
[12]; Rate 250 g/ha, 0 to 100 scale
  Plant response rating, Kochia: 30
[12]; [24]
  Plant response rating, Kochia: 30
[13]
  Purple nutsedge plant response rating: 20
[14]
  Plant response rating, Guineagrass: 100
[15]; Postemergence, Rate 1000 g/ha
  Plant response rating, Morningglory: 10
[15]; Pre-emergence, Rate 2000 g/ha
  Plant response rating, Morningglory: 6
[16]
  Plant response rating, Itchgrass: 20
[17]
  Sandbur plant response rating: 85
[18]
  Plant response rating, C. purslane: 0
[19]
  Plant response rating, Com. groundsel: 85
[20]
  Plant response rating, Alexandergrass: 98
[21]
  Surinam grass plant response rating: 75
[22]
  Tall Mallow plant response rating: 10
